Laboratory results as given in patent publication EP3189850A1, “LIVER TARGETING OF CYCLIC PRES-DERIVED PEPTIDES OF HBV” (Ruprecht-Karls-Universität Heidelberg, priority 2015, dated 2017).
Bridge positions count the residues as written; N and C are the ends. Square brackets hold non-standard residues; d marks the D form. Ends that are not written are not given here. * marks the point of attachment. Myristoyl = CCCCCCCCCCCCCC(=O)*

Columns and labels:
[1] = Biodistribution and γ-camera imaging of the 125I-labeled peptide (Figure 4); type: in vivo; conditions: γ-camera / biodistribution in NMRI mice
[2] = molecular target: T1, NTCP (Mus musculus, UniProt O08705); assay: Scintigraphic imaging (125I) and MicroPET (68Ga) of labelled peptides with and without excess of Myrcludex B (Figure 3); type: in vivo; conditions: healthy mice; labelled peptide with and without excess of Myrcludex B; 20 and 120 min p.i.
T1 construct: from tissue; host or cells: liver of healthy mice, in vivo imaging
T1 sequence (O08705 1-362): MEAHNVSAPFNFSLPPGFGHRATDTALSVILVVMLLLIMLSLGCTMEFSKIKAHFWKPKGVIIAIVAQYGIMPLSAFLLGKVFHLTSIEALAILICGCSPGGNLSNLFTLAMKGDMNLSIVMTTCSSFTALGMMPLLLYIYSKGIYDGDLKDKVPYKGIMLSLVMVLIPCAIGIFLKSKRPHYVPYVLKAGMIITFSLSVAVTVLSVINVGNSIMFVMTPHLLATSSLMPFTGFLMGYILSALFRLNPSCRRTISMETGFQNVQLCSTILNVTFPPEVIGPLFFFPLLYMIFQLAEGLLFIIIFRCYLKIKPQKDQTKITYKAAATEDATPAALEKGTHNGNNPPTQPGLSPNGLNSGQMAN
Experimental: Ca. 1 mL of [^68Ga]Ga^3+ eluate (ca. 600-800 MBq) was added to a mixture of 20 µL of a 1mM solution of compound xy in DMSO and 10 µL of saturated solution of ascorbic acid in water. The pH of the resulting mixture was adjusted to 3.5-4.0 by careful addition of a 2.5 M sodium acetate solution in water. Complexation was achieved by heating to over 95°C for 5-10 minutes under constant stirring. The product was isolated by solid phase extraction with ethanol followed by evaporation. The residue was taken up in 1% bovine serum albumin solution and an appropriate amount (ca. 20-50 MBq) was used for the individual experiment in a volume not exceeding 100 µl. Mice were anesthetized with 1% sevoflurane (Abbott, Wiesbaden, Germany) and images were recorded using an Inveon small animal positron emission tomographic (PET) scanner (Siemens, Knoxville, TN) up to 60 minutes postinjection.

| Substance | elimination via the intestine (time) [1] [h] | liver accumulation [1] | accumulation in the liver [2] |
| --- | --- | --- | --- |
| myr-cyclo-intra[NP^*LGFFPDy] | ≤ 2 | accumulates rapidly in the liver | – |
| myr-cyclo[CNPLGFFPDC]y (Myristoyl-CNPLGFFPDC[dY]; disulfide 1-10; also: 125I-labelled) [cyclo[9-16]myr, myristoylated Cys-HBVpreS9-16-Cys-D-Tyr cyclized via disulfide bridge of the two cysteines] | – | – | NTCP specific accumulation in the liver |
